Source: patent publication US20150010928A1, “MEANS AND METHODS FOR ASSESSING AN ENDOCRINE DISEASE OR DISORDER” (priority 2012, published 2015)
Marks after values point to notes of the source that are not given here.

System: male rats
Experiment: Plasma metabolite profiling (GC-MS, LC-MS, SPE-LC-MS) in male rats dosed once daily over 28 days (OECD 407)
Format: in vivo, rat
Design: key to erythro-Sphingoside (d18:1) / Tricosanoic acid (C23:0) / beta-Sitosterol / Tryptophan: ratio of treated group mean to untreated control group mean
Procedure: Each dose group in the studies consisted of five rats per sex. Additional groups of each 5 male and female animals served as controls. […] All animals of the animal population were kept under the same constant temperature (20-24±3° C.) and the same constant humidity (30-70%). The animals of the animal population were fed ad libitum. The food to be used was essentially free of chemical or microbial contaminants. Drinking water was also offered ad libitum. Accordingly, the water was free of chemical and microbial contaminants as laid down in the European Drinking Water Directive 98/83/EG. The illumination period was 12 hours light followed by 12 hours darkness (12 hours light, from 6:00 to 18:00, and 12 hours darkness, from 18:00 to 6:00). […] The test substances (compounds) in the Tables 1 to 17 below were dosed and administered as described in the Table 18.
In the morning of day 7, 14, and 28, blood was taken from the retroorbital venous plexus from fasted anaesthetized animals. From each animal, 1 ml of blood was collected with EDTA as anticoagulant. The samples were centrifuged for generation of plasma. All plasma samples were covered with a N2 atmosphere and then stored at −80° C. until analysis.
For mass spectrometry-based metabolite profiling analyses plasma samples were extracted and a polar and a non-polar (lipid) fraction was obtained. For GC-MS analysis, the non-polar fraction was treated with methanol under acidic conditions to yield the fatty acid methyl esters. Both fractions were further derivatised with O-methyl-hydroxyamine hydrochloride and pyridine to convert Oxogroups to O-methyloximes and subsequently with a silylating agent before analysis. In LC-MS analysis, both fractions were reconstituted in appropriate solvent mixtures. HPLC was performed by gradient elution on reversed phase separation columns. Mass spectrometric detection which allows target and high sensitivity MRM (Multiple Reaction Monitoring) profiling in parallel to a full screen analysis was applied as described in WO2003073464.
Steroids and their metabolites were measured by online SPE-LC-MS (Solid phase extraction-LC-MS).
Following comprehensive analytical validation steps, the data for each analyte were normalized against data from pool samples. These samples were run in parallel through the whole process to account for process variability. The significance of treatment group values specific for sex, treatmentduration and metabolite was determined by comparing means of the treated groups to the means of the respective untreated control groups using WELCH-test and quantified with treatment ratios versus control and p-values.
The identification of the most important biomarkers per toxicity pattern was done by a ranking of the analytes in the tables below. Therefore the metabolic changes in reference treatments of a given pattern (shown in the table) were compared with changes of the same metabolite in other unrelated treatments. […] The maximum absolute value of the respective TVALUE was taken to indicate the most important metabolite for the pattern.

[1] = male rats, plasma, high dose, day 7
[2] = male rats, plasma, high dose, day 14
[3] = male rats, plasma, high dose, day 28

## CC(=O)O[C@]1(C(C)=O)CC[C@H]2[C@@H]3C[C@H](C)C4=CC(=O)CC[C@]4(C)[C@H]3CC[C@@]21C [Medroxyprogesterone acetat]
[1]
  Alanine, ratio versus control: 0.73 *
  Androstenedione, ratio versus control: 1.68
  Cholesterol, ratio versus control: 0.9
  Glycine, ratio versus control: 1.05 *
  Heptadecanoic acid (C17:0), ratio versus control: 0.98
  Testosterone, ratio versus control: 2
  Threonine, ratio versus control: 0.82 *
  Uric acid, ratio versus control: 0.6 *
  alpha-Tocopherol, ratio versus control: 0.82 *
[2]
  Alanine, ratio versus control: 0.97
  Androstenedione, ratio versus control: 0.28 *
  Cholesterol, ratio versus control: 0.69 *
  Glycine, ratio versus control: 1.06
  Heptadecanoic acid (C17:0), ratio versus control: 0.92
  Testosterone, ratio versus control: 0.22 *
  Threonine, ratio versus control: 1
  Uric acid, ratio versus control: 1.07
  alpha-Tocopherol, ratio versus control: 0.82 *
[3]
  Androstenedione, ratio versus control: 0.1 *
  Testosterone, ratio versus control: 0.08 *

## Cc1cccc(C)c1N(Cn1cccn1)C(=O)CCl [Metazachlor]
m7, high dose, Table 10a
  3-O-Methylsphingosine (d18:1): 2.88 *
  5-O-Methylsphingosine (d18:1): 3.04 *
  Cysteine: 1.07^
  Lignoceric acid (C24:0): 1.6 *
  Nervonic acid (C24:cis[15]1): 3.17 *
  Oleic acid (C18:cis[9]1): 1.09^
  Stearic acid (C18:0): 1.45 *
  alpha-Tocopherol: 1.71 *
  erythro-Sphingoside (d18:1): 2.3 *
  threo-Sphingosine (d18:1): 2.18 *
m7, high dose, Table 10b
  Oleic acid (C18:cis[9]1): 1.09
  Phosphatidylcholine (C16:0, C16:0): 0.98
  Thyroxine (T4): 0.98
  trans-4-Hydroxyproline: 0.93
m14, high dose, Table 10a
  3-O-Methylsphingosine (d18:1): 4.31 *
  5-O-Methylsphingosine (d18:1): 4.66 *
  Cysteine: 0.86
  Lignoceric acid (C24:0): 2.38 *
  Nervonic acid (C24:cis[15]1): 4 *
  Oleic acid (C18:cis[9]1): 1.82 *
  Stearic acid (C18:0): 2.36 *
  alpha-Tocopherol: 2.2 *
  erythro-Sphingoside (d18:1): 3.47 *
  threo-Sphingosine (d18:1): 3.13 *
m14, high dose, Table 10b
  Oleic acid (C18:cis[9]1): 1.82^
  Phosphatidylcholine (C16:0, C16:0): 0.83 *
  Thyroxine (T4): 0.56 *
  trans-4-Hydroxyproline: 0.72 *
m28, high dose, Table 10a
  3-O-Methylsphingosine (d18:1): 4.4 *
  5-O-Methylsphingosine (d18:1): 4.51 *
  Cysteine: 1.41 *
  Lignoceric acid (C24:0): 2.11 *
  Nervonic acid (C24:cis[15]1): 3.63 *
  Oleic acid (C18:cis[9]1): 1.82 *
  Stearic acid (C18:0): 2.59 *
  alpha-Tocopherol: 2.11 *
  erythro-Sphingoside (d18:1): 3.68 *
  threo-Sphingosine (d18:1): 3.33 *
m28, high dose, Table 10b
  Oleic acid (C18:cis[9]1): 1.82^
  Phosphatidylcholine (C16:0, C16:0): 0.79 *
  Thyroxine (T4): 0.74^
  trans-4-Hydroxyproline: 0.84 *

## Cn1cc[nH]c1=S [Methimazole]
m7, high dose, Table 10a
  3-O-Methylsphingosine (d18:1): 3.59 *
  5-O-Methylsphingosine (d18:1): 3.41 *
  Cysteine: 0.74^
  Lignoceric acid (C24:0): 2.12 *
  Nervonic acid (C24:cis[15]1): 2.59 *
  Oleic acid (C18:cis[9]1): 0.95^
  Stearic acid (C18:0): 1.34 *
  alpha-Tocopherol: 1.76 *
  erythro-Sphingoside (d18:1): 2.91 *
  threo-Sphingosine (d18:1): 2.91 *
m7, high dose, Table 10b
  Oleic acid (C18:cis[9]1): 0.95^
  Thyroxine (T4): 0.11 *
  trans-4-Hydroxyproline: 0.85 *
m14, high dose, Table 10a
  3-O-Methylsphingosine (d18:1): 3.98 *
  5-O-Methylsphingosine (d18:1): 4.75 *
  Cysteine: 1.25
  Lignoceric acid (C24:0): 2.82 *
  Nervonic acid (C24:cis[15]1): 3 *
  Oleic acid (C18:cis[9]1): 0.97
  Stearic acid (C18:0): 1.4 *
  alpha-Tocopherol: 2.66 *
  erythro-Sphingoside (d18:1): 3.71 *
  threo-Sphingosine (d18:1): 3.72 *
m14, high dose, Table 10b
  Oleic acid (C18:cis[9]1): 0.97^
  Thyroxine (T4): 0.04 *
  trans-4-Hydroxyproline: 0.76 *
m28, high dose, Table 10a
  3-O-Methylsphingosine (d18:1): 4.59 *
  5-O-Methylsphingosine (d18:1): 4.37 *
  Cysteine: 0.92^
  Lignoceric acid (C24:0): 2.16 *
  Nervonic acid (C24:cis[15]1): 2.23 *
  Oleic acid (C18:cis[9]1): 0.87^
  alpha-Tocopherol: 2.18 *
  erythro-Sphingoside (d18:1): 3.44 *
  threo-Sphingosine (d18:1): 4.28 *
m28, high dose, Table 10b
  Oleic acid (C18:cis[9]1): 0.87 *
  Phosphatidylcholine (C16:0, C16:0): 0.92 *
  Thyroxine (T4): 0.02 *
  trans-4-Hydroxyproline: 0.92^
[1]
  1,5-Anhydrosorbitol, ratio versus control: 0.81 *
  3-O-Methylsphingosine (d18:1), ratio versus control: 3.59 *
  5-O-Methylsphingosine (d18:1), ratio versus control: 3.41 *
  18-Hydroxy-11-deoxycorticosterone, ratio versus control: 0.38 *
  Behenic acid (C22:0), ratio versus control: 2.19 *
  Ceramide (d18:1, C24:0), ratio versus control: 2.58 *
  Ceramide (d18:1, C24:1), ratio versus control: 1.88 *
  Coenzyme Q9, ratio versus control: 1.23
  Corticosterone, ratio versus control: 0.38 *
  Docosapentaenoic acid (C22:cis[7, 10, 13, 16, 19]5), ratio versus control: 1.16
  Glucose, ratio versus control: 1.02
  Glycerol, polar fraction, ratio versus control: 0.74 *
  Isoleucine, ratio versus control: 0.98
  Lignoceric acid (C24:0), ratio versus control: 2.12 *
  Linolenic acid (C18:cis[9, 12, 15]3), ratio versus control: 0.7 *
  Nervonic acid (C24:cis[15]1), ratio versus control: 2.59 *
  Phytosphingosine, ratio versus control: 2 *
  Sphingomyelin (d18:1, C16:0), ratio versus control: 2.24 *
  Threonic acid, ratio versus control: 0.72 *
  Tricosanoic acid (C23:0), ratio versus control: 1.93 *
  alpha-Tocopherol, ratio versus control: 2.26 *
  erythro-Sphingosine (d18:1), ratio versus control: 2.91 *
  threo-Sphingosine (d18:1), ratio versus control: 2.91 *
  trans-4-Hydroxyproline, ratio versus control: 0.85 *
[2]
  1,5-Anhydrosorbitol, ratio versus control: 0.98
  3-O-Methylsphingosine (d18:1), ratio versus control: 3.98 *
  5-O-Methylsphingosine (d18:1), ratio versus control: 4.75 *
  18-Hydroxy-11-deoxycorticosterone, ratio versus control: 0.82
  Behenic acid (C22:0), ratio versus control: 3.12 *
  Ceramide (d18:1, C24:0), ratio versus control: 2.83 *
  Ceramide (d18:1, C24:1), ratio versus control: 2.41 *
  Choline plasmalogen (C18, C20:4), ratio versus control: 1.45 *
  Coenzyme Q9, ratio versus control: 1.54 *
  Corticosterone, ratio versus control: 1.47 *
  Docosapentaenoic acid (C22:cis[7, 10, 13, 16, 19]5), ratio versus control: 1.17
  Glucose, ratio versus control: 1.11
  Glycerol, polar fraction, ratio versus control: 0.64 *
  Isoleucine, ratio versus control: 1.18 *
  Lignoceric acid (C24:0), ratio versus control: 2.82 *
  Linolenic acid (C18:cis[9, 12, 15]3), ratio versus control: 0.8 *
  Nervonic acid (C24:cis[15]1), ratio versus control: 3 *
  Phosphatidylcholine (C18:0, C22:6), ratio versus control: 0.97
  Phytosphingosine, ratio versus control: 3.12 *
  Sphingomyelin (d18:1, C16:0), ratio versus control: 2.27 *
  Sphingomyelin (d18:1, C24:0), ratio versus control: 1.64 *
  Threonic acid, ratio versus control: 0.69 *
  Tricosanoic acid (C23:0), ratio versus control: 2.69 *
  alpha-Tocopherol, ratio versus control: 3.65 *
  erythro-Sphingosine (d18:1), ratio versus control: 3.71 *
  threo-Sphingosine (d18:1), ratio versus control: 3.72 *
  trans-4-Hydroxyproline, ratio versus control: 0.76 *
[3]
  1,5-Anhydrosorbitol, ratio versus control: 1.06
  3-O-Methylsphingosine (d18:1), ratio versus control: 4.59 *
  5-O-Methylsphingosine (d18:1), ratio versus control: 4.37 *
  18-Hydroxy-11-deoxycorticosterone, ratio versus control: 0.24 *
  Behenic acid (C22:0), ratio versus control: 3.13 *
  Ceramide (d18:1, C24:0), ratio versus control: 2.72 *
  Ceramide (d18:1, C24:1), ratio versus control: 1.89 *
  Coenzyme Q9, ratio versus control: 2.14 *
  Corticosterone, ratio versus control: 0.63
  Glycerol, polar fraction, ratio versus control: 0.71 *
  Isoleucine, ratio versus control: 1.38 *
  Lignoceric acid (C24:0), ratio versus control: 2.16 *
  Linolenic acid (C18:cis[9, 12, 15]3), ratio versus control: 0.7 *
  Nervonic acid (C24:cis[15]1), ratio versus control: 2.23 *
  Phosphatidylcholine (C18:0, C22:6), ratio versus control: 1.22 *
  Phytosphingosine, ratio versus control: 3.11 *
  Sphingomyelin (d18:1, C16:0), ratio versus control: 1.92 *
  Sphingomyelin (d18:1, C24:0), ratio versus control: 1.41 *
  Threonic acid, ratio versus control: 0.69 *
  Tricosanoic acid (C23:0), ratio versus control: 2.5 *
  alpha-Tocopherol, ratio versus control: 2.04 *
  erythro-Sphingosine (d18:1), ratio versus control: 3.44 *
  threo-Sphingosine (d18:1), ratio versus control: 4.28 *
  trans-4-Hydroxyproline, ratio versus control: 0.92 *
rat, in vivo
  Docosapentaenoic acid (C22:cis[7, 10, 13, 16, 19]5), ratio versus control: 1.24 *
  Glucose, ratio versus control: 1.06 *
  Phosphatidylcholine (C18:0, C22:6), ratio versus control: 1.17 *
  Sphingomyelin (d18:1, C24:0), ratio versus control: 1.35 *
  Stearic acid (C18:0): 1.16 *
